Results from US5118705A, “Water soluble salts of purpuromycin and pharmaceutical formulations thereof” (Gruppo Lepetit S.p.A., priority 1990, dated 1992).
Values after ≈ are worked out from the molar mass of the structure shown. “Also recorded” adds a separate entry of the source. Like-named read-outs stand apart in the source and are kept apart here.

Columns and labels:
[1] = tested on: Candida kruzei L 244; assay: Activity against Candida strains, two-fold dilution method; assay type: cell-based; settings: L244, 20 h at 30° C., pH 7.4
Procedure: (§1) This set of experiments included also one strain each of two other Candida species, Candida tropicalis and Candida kruzei. The M.I.C. were determined by the two-fold dilution method in buffered (0.01 M phosphate buffer, pH 7.4) yeast nitrogen base medium (Difco) supplemented with 1.5 g/liter asparagine in microtiter trays. Inocula were approximately 10^4 colony forming units/ml. Incubation was for 20 h at 30° C. Purpuromycin was dissolved in DMSO and added to the cultures as above. The following TABLE IV reports the MIC values for the whole set of strains.

[2] = tested on: Candida albicans (19 clinical isolates); assay: as above; assay type: cell-based; settings: 20 h at 30° C., pH 7.4
Procedure: as §1

[3] = tested on: Candida tropicalis L 243; assay: as above; assay type: cell-based; settings: L243, 20 h at 30° C., pH 7.4
Procedure: as §1

[4] = tested on: Gardnerella vaginalis; assay: In vitro activity, M.I.C., agar dilution; assay type: cell-based; settings: salts calculated as weight of purpuromycin; ATCC 14018 and 10 clinical isolates, all same M.I.C.; inoculum ca. 10^5 CFU, 48 h
Procedure: **The assay was carried out on strain ATCC 14018 and 10 clinical isolates
Incubation was for 48 h in an anaerobic hood (37° C.); inoculum ca. 10^5 CFU.

[5] = tested on: Trichomonas vaginalis strain TVL; assay: Activity against Trichomonas vaginalis, two-fold tube dilution method; assay type: cell-based; settings: Trichomonas vaginalis, 48 hours at 37° C.
Procedure: Trichomonas vaginalis (applicant's internal code TVL) was grown on Trichomonas Culture Medium Base (Merck) plus 10% heat treated horse serum. Inoculum: approximately 10^5 organisms/ml. Incubation: 48 hours at 37° C.

[6] = tested on: Enterococcus faecalis ATCC 7080; assay: In vitro activity, M.I.C., microbroth dilution; assay type: cell-based; settings: salts calculated as weight of purpuromycin; 37° C., 20 h
Procedure: (§2) MIC were determined by the microbroth dilution test. Bacteria were grown at 37° C., fungi at 30° C. Incubation was for 20 h, except for Propionibacterium acnes, Bacteroides fragilis, Neisseria gonorrhoeae, Haemophilus influenzae (48 h) and Trichophyton mentagrophytes (72h) Neisseria gonorrhoeae and Haemophilus influenzae were incubated in a CO2 -enriched (5%) atmosphere; Propionibacterium acnes and Bacteroides fragilis in an anaerobic hood. Media used were: Oxoid Iso-sensitest broth (Staphylococci, Enterococcus faecalis and Escherichia coli); Difco Todd-Hewitt broth (streptococci); Difco GC base broth with 1% BBL IsoVitaleX (Neisseria gonorrhoeae); Difco Brain-Heart Infusion broth with 1% Difco supplement C (Haemophilus influenzae); Difco Wilkins-Chalgren broth (Propionibacterium acnes and Bacteroides fragilis); Difco Yeast Nitrogen Base broth with 1.5 g/1 asparagine (Candida albicans); Difco Sabouraud-dextrose broth (Trichophyton mentagrophytes). Inocula were approximately 10^4 CFU/ml.

[7] = tested on: Bacteroides fragilis ATCC 23745; assay: In vitro activity, M.I.C., microbroth dilution; assay type: cell-based; settings: salts calculated as weight of purpuromycin; 37° C., 48 h, anaerobic hood
Procedure: as §2

[8] = tested on: Trichophyton mentagrophytes SKF 17410; assay: In vitro activity, M.I.C., microbroth dilution; assay type: cell-based; settings: salts calculated as weight of purpuromycin; 30° C., 72 h
Procedure: as §2

[9] = tested on: Haemophilus influenzae ATCC 19418; assay: In vitro activity, M.I.C., microbroth dilution; assay type: cell-based; settings: salts calculated as weight of purpuromycin; 37° C., 48 h, 5% CO2
Procedure: as §2

[10] = tested on: Strep. pyogenes L49; assay: In vitro activity, M.I.C., microbroth dilution; assay type: cell-based; settings: salts calculated as weight of purpuromycin; 37° C., 20 h
Procedure: as §2

[11] = tested on: Staph. haemolyticus L602; assay: In vitro activity, M.I.C., microbroth dilution; assay type: cell-based; settings: salts calculated as weight of purpuromycin; 37° C., 20 h
Procedure: as §2

[12] = tested on: Staph. aureus Tour L 165; assay: In vitro activity, M.I.C., microbroth dilution; assay type: cell-based; settings: salts calculated as weight of purpuromycin; 37° C., 20 h
Procedure: as §2

[13] = tested on: Propionibacterium acnes ATCC 6919; assay: In vitro activity, M.I.C., microbroth dilution; assay type: cell-based; settings: salts calculated as weight of purpuromycin; 37° C., 48 h, anaerobic hood
Procedure: as §2

[14] = tested on: Neisseria gonorrhoeae L 997; assay: In vitro activity, M.I.C., microbroth dilution; assay type: cell-based; settings: salts calculated as weight of purpuromycin; 37° C., 48 h, 5% CO2
Procedure: as §2

[15] = tested on: Strep. pneumoniae L44; assay: In vitro activity, M.I.C., microbroth dilution; assay type: cell-based; settings: salts calculated as weight of purpuromycin; 37° C., 20 h
Procedure: as §2

[16] = tested on: Escherichia coli SKF 12140; assay: In vitro activity, M.I.C., microbroth dilution; assay type: cell-based; settings: salts calculated as weight of purpuromycin; 37° C., 20 h
Procedure: as §2

[17] = tested on: Staph. epidermidis ATCC 12228; assay: In vitro activity, M.I.C., microbroth dilution; assay type: cell-based; settings: salts calculated as weight of purpuromycin; 37° C., 20 h
Procedure: as §2

[18] = tested on: Candida albicans SKF 2270; assay: In vitro activity, M.I.C., microbroth dilution; assay type: cell-based; settings: salts calculated as weight of purpuromycin; 30° C., 20 h
Procedure: as §2

[19] = tested on: Candida albicans ATCC 10231; assay: Activity against Candida strains, two-fold dilution method; assay type: cell-based; settings: Candida albicans, ATCC10231; 20 h at 30° C., pH 7.4; read-out: MIC
Procedure: as §1, with “above.” for “above. The following TABLE IV reports the MIC values for the whole set of strains.”

[20] = tested on: Candida albicans SKF 2270; assay: as above; assay type: cell-based; settings: Candida albicans, SKF2270; 20 h at 30° C., pH 7.4; read-out: MIC
Procedure: as §1, with “above.” for “above. The following TABLE IV reports the MIC values for the whole set of strains.”

[21] = tested on: Gram-positive and Gram-negative bacteria and fungi; settings: reported in UK Patent 1455128 and U.S. Pat. No. 3,914,257; cited from earlier work
[22] = Solubility and pH of solution; assay type: physicochemical
[23] = tested on: Gardnerella vaginalis ATCC 14018 and other 11 clinical isolates; assay: Activity against Gardnerella vaginalis, standard two fold dilution methods; settings: MIC 8 mcg/ml; 12 strains tested
Procedure: The strains were grown on Casman medium (Difco) plus 5% (v/v) whole rabbit blood and 0.15 (v/v) lysed rabbit blood. Inoculum size: approximately 10^4 colony forming units per spot. Incubation in an anaerobic hood: 48 hours at 37° C.

[24] = tested on: Trichomonas vaginalis TVL; assay: In vitro activity, M.I.C., microtiter trays; assay type: cell-based; settings: salts calculated as weight of purpuromycin; 48 h, anaerobic hood, 37° C.
Procedure: MIC were performed in flat-bottomed microtiter trays, with 0.2 ml per well. The medium was TYM modified basal medium (Merck) plus 10% horse serum (treated to inactivate complement). The inoculum was ca. 10^5 organisms/ml; incubation was for 48 h in an anaerobic hood (37° C.).The microtiter wells were read using an inverted light microscope. The MIC was taken as the lowest concentration at which no live (mobile) protozoa were seen.

[25] = Stability; assay type: physicochemical

With `COC(=O)c1cc2cc3c(c(O)c2c(=O)o1)OC1(Cc2c(O)c4c(c(O)c2O1)C(=O)C(OC)=CC4=O)CC3O` (stereo not drawn) [Purpuromycin] the MIC [1] was 4 µg/mL (≈ 7.43 µM), the MIC [2] was 1 to 4 µg/mL (≈ 1.86 to 7.43 µM) and the MIC [3] was 2 µg/mL (≈ 3.71 µM). The M.I.C. [4] was 16 mg/L, the MIC ([5]; dissolved in DMSO, read-out: minimal inhibitory concentration (M.I.C.)) was 4 µg/mL (≈ 7.43 µM) and the MIC ([5]; read-out: MIC) was 4 µg/mL (≈ 7.43 µM). It also gave a M.I.C. [6] of 0.06 mg/L, a M.I.C. [7] of 0.13 mg/L and a M.I.C. [8] of 1 mg/L. For the same molecule, the M.I.C. [9] was 0.06 mg/L, the M.I.C. [10] was 0.06 mg/L and the M.I.C. [11] was 0.06 mg/L. It also gave a M.I.C. [12] of 0.06 mg/L, a M.I.C. [13] of 0.06 mg/L and a M.I.C. [14] of 0.06 mg/L. For the same molecule, the M.I.C. [15] was 0.06 mg/L, the M.I.C. [16] was 8 mg/L and the M.I.C. [17] was 0.06 mg/L. For the same molecule, the M.I.C. [18] was 1 mg/L, the MIC [19] was 0.5 µg/mL (≈ 0.929 µM) and the MIC [20] was 1 µg/mL (≈ 1.86 µM). For the same molecule, the “in vitro antimicrobial activity” value [21] was “active in vitro against both Gram-positive and Gram-negative bacteria and fungi”, the solubility ([22]; buffer, pH 8.5, aqueous buffer, pH 8.5 buffer, read-out: solubility in water) was 22 µg/mL (≈ 40.9 µM) and the “solubility (in words)” value ([22]; solvent) was “practically insoluble in water and in lower alkanols; also recorded: poorly soluble in most organic solvents”. For the same molecule, the “Number of strains with MIC of 8 mcg/ml” value [23] was 12 strains, the M.I.C. [24] was 4 mg/L and the “stability (in words)” value [25] was “hydrolysis of the carbomethoxy group; also recorded: undergoes a degradation process”.
